“Also recorded” adds a separate entry of the source.
What was measured:
Assay type in all cases: cell-based, mouse
[1] = tested on: wild type OPC cultures; test: Oligodendrocyte differentiation in wild type OPC cultures (PLP and O4 immunolabeling); conditions: wild type OPC cultures grown four days with 1mM IBMX
Protocol: A. Immunolabeling of wild type OPC cultures grown for four days in the absence (Control) or presence of 1mM 3-isobutyl-1-methylxanthine (IBMX) using antibodies to PLP and O4. Dapi was used to label the nuclei. Scale bar, 50 μm. B. Percentage of PLP-positive oligodendrocytes among the total O4-positive cells (**P<0.01, t-test, n=3 cultures). Bars represent mean±SEM.
Immunofluorescence and Immunoblotting For immunohistochemistry, mice were anesthetized and perfused with 2% PFA/PBS. Brains and optic nerves were isolated and post fixed on ice for 15 min, followed by 30% sucrose/ PBS at 4° C. overnight. Tissues were embedded in OCT and sectioned. Sections were permeabilized in methanol at −20° C. for 5 min. Immunostaining of GPR37 was carried out using 2%PFA-perfused mouse brain sections that were permeabilized with cold acetone and blocked with 5% fish gelatin and 0.5% Triton-X100 at RT for 1 hr. For immunocytochemistry, cells were fixed with 4% PFA/ PBS for 15min at room temperature. For O4 staining, live cells were incubated with medium containing the O4 antibody at 37° C. for 45min before fixation. […] Western blot analysis was done using OPC cultures lysed in loading buffer and chemiluminescence was detected using the ChemiDoc MP System (Bio-Rad). […]

[2] = tested on: nuclear translocation of ERK1/2; test: Nuclear localization of pERK in cultured OPCs (immunolabeling pERK, PLP, Dapi); conditions: Gpr37−/− OPCs (DIV7)
Protocol: (§1) FIGS. 11A-B illustrate that EPE blocks the nuclear translocation of pERK in Gpr37 null oligodendrocytes. A. Cultured OPCs isolated from WT and Gpr37^−/− mice were grown for 3 days (DIV2-DIVS) in the presence or absence (control) of EPE, followed by immunolabeling with antibodies to pERK and PLP. The nuclei were labeled with Dapi. PLP and pERK immunoreactivity are shown in separate images along with the Dapi signal. Higher magnification of the nucleus is shown in the insets in each panel. […] Scale bar, 50 μm. […] Cultures were grown in the absence (DME), or presence of EPE, PLX4032, or DMSO as control for 6 days, and then fixed at DIV7 and labeled with antibodies to Olig2. The number of positive cells per field of view is shown in the graph. Bars represent mean±SEM (n=3 different cultures per each genotype; 10 fields of view were analyzed for each culture).
FIGS. 12A-D illustrate the involvement of cAMP in Gpr37 signaling in oligodendrocytes. A-B. Absence of Gpr37 results in increased levels of cAMP in mice brain (A) and cultured OPCs (B). Intracellular cAMP was extracted from P70 mice brains (*P<0.05, t-test; n=6 WT and n=7 KO mice), or from DIV5 cultured OPCs (*P<0.01, t-test; n=3 different OPC primary cultures of each genotype) and detected by ELISA. C. Adenylate cyclase inhibition prevents the nuclear translocation of pERK in Gpr37^−/− OPCs. Cultured wild type (WT) and Gpr37^−/− OPCs (DIV7) were left untreated (control) or treated with the adenylyl cyclase inhibitor SQ22536 (0.1 mM) for 2 hours in their growth medium. Cells were then fixed and labeled with Dapi to mark their nuclei, and with antibodies to PLP and pERK. […] Bars show mean±SEM (*P<0.01, t-test; n=3 different primary cultures for each genotype; 50 PLP-positive cells were counted per each culture).
FIGS. 13A-B illustrate that inhibition of Epac activity attenuates nuclear translocation of ERK1/2 in oligodendrocytes lacking GPR37. […] Bars show mean±SEM (*P<0.05, **P<0.01, t-test; n=3 different primary cultures for each genotype; 100 PLP-positive cells were counted per each culture). […]

[3] = tested on: oligodendrocytes co-cultured with DRG neurons; test: Number of Olig2 cells in oligodendrocyte/DRG neuron co-cultures; conditions: both genotypes (WT and Gpr37−/−); 6 days treatment, fixed at DIV7
Protocol: as §1
Immunofluorescence and Immunoblotting For immunohistochemistry, mice were anesthetized and perfused with 2% PFA/PBS. Brains and optic nerves were isolated and post fixed on ice for 15 min, followed by 30% sucrose/ PBS at 4° C. overnight. Tissues were embedded in OCT and sectioned. Sections were permeabilized in methanol at −20° C. for 5 min. […] Western blot analysis was done using OPC cultures lysed in loading buffer and chemiluminescence was detected using the ChemiDoc MP System (Bio-Rad). […]

[4] = tested on: oligodendrocytes co-cultured with DRG neurons; test: OPC/DRG neuron co-cultures: PLP-positive oligodendrocytes associated with axonal Caspr clustering
Source text: FIGS. 5A-H illustrate that Gpr37-dependent inhibition of oligodendrocyte differentiation is mediated by ERK phosphorylation and nuclear translocation. A. Immunolabeling of sagittal brain sections of P12 brain stems from wild type (WT) and KO (Gpr37^−/−) mice using antibodies to phosphorylated ERK (pERK) and Olig2. B. The number of pERK and Olig2 positive cells in Gpr37^−/− compared to WT brainstem (*P<0.05, n=5 images from two mice per genotype). C. Western blot analysis of purified OPC cultures at DIV7 (three cultures per each genotype are shown). Blots were incubated with antibodies to pERK or general ERK (ERK) as indicated. D. Relative value of pERK intensity normalized by general ERK (p=0.02, n=7 cultures each genotype). E. pERK is present in the nucleus of oligodendrocytes lacking Gpr37. […] (* p<0.05, n=3 different primary cultures for each genotype; 100 PLP-positive oligodendrocytes were counted per each culture). […] H. Quantitation of the results showing the fold change in the percent of PLP-positive cells that associate with axonal Caspr immunoreactivity in all samples compare to the non-treated wild type cultures. […]
Immunofluorescence and Immunoblotting For immunohistochemistry, mice were anesthetized and perfused with 2% PFA/PBS. […] Western blot analysis was done using OPC cultures lysed in loading buffer and chemiluminescence was detected using the ChemiDoc MP System (Bio-Rad). […]

CC(C)Cn1c(=O)n(C)c(=O)c2[nH]cnc21 [IBMX, 3-isobutyl-1-methylxanthine]
oligodendrocyte differentiation (percentage of PLP-positive oligodendrocytes among total O4-positive cells) [1]: enhances the differentiation; also recorded: enhances oligodendrocyte differentiation

CC(C)(C)c1cc(C(=O)/C(C#N)=N/Nc2cccc(Cl)c2)no1 [ESI-09]
number of oligodendrocytes displaying nuclear localization of pERK (ERK1/2) ([2]; ESI-09 1 μM for 2 hours, vs DMSO): significant decrease; also recorded: reduced to equivalent level of wild type cells

CCCS(=O)(=O)Nc1ccc(F)c(C(=O)c2c[nH]c3ncc(-c4ccc(Cl)cc4)cc23)c1F [PLX4032]
number of Olig2 cells (per field of view) [3]: do not affect
number of PLP-positive oligodendrocytes associated with intense axonal clustering of Caspr ([4]; Gpr37−/− oligodendrocytes with wild type DRG neurons, 6 days in 10 μM EPE or 1 μM PLX4032, vs DMSO control): completely abolished; also recorded: significantly low number
PLP-positive oligodendrocytes associated with axonal clustering of Caspr ([4]; wild type cultures, 6 days in 10 μM EPE or 1 μM PLX4032): no effect

Nc1ncnc2c1ncn2C1CCCO1 (stereo not shown) [SQ 22536]
number of oligodendrocytes displaying nuclear localization of pERK (ERK1/2) ([2]; SQ22536 0.1 mM for 2 hours): significant decrease
number of oligodendrocytes displaying nuclear localization of pERK (ERK1/2) ([2]; SQ22536 0.1 mM for 2 hours, listed as SQ22536): reduced to equivalent levels of wild type cells
